{"source": "patent US7169756B2", "about": "“Streptogramin antibiotics” (priority 2005, dated 2007)", "key": {"Escherichia coli BAS901": {"system": "Escherichia coli BAS901", "test": "disk assay, zone of growth inhibition", "type": "cell-based", "settings": "Escherichia coli BAS901, hyperpermeable, 16 hr at 37° C.", "method": "Partially purified material from these reactions was used to test their antibiotic properties in disk diffusion susceptibility assays using E. coli BAS901.\n(§1) The antibiotic activity of the peptides synthesized in this study was initially assayed using a disk assay where samples were applied to sterile paper disks placed on a fresh lawn of bacterial culture on appropriate agar plates as required by the organism. These were then incubated for 16 hr at 37° C. and the zone of growth inhibition surrounding the disks recorded. For quantitative assessment of antibiotic activity in liquid culture, the minimal inhibitory concentration (MIC) of peptides was determined by serial dilution studies. The peptides and standard antibiotics were dissolved in DMSO and the final concentration of DMSO in the liquid cultures was 5%. Both S. aureus RN4220 and E. coli BAS901 were able to grow efficiently at this level of DMSO.\n(§2) Crude material from the initial synthesis reactions was used to test the potential of the analogues as antibiotics in susceptibility assays where a solution of the compound was placed on a paper disk on a lawn of bacteria. As described above, E. coli BAS901 is deficient in the Imp/OstA protein, an outer membrane protein, involved in cell envelope biogenesis (1, 5). […] These were then incubated for 16 hrs at 37° C. and the zone of growth inhibition surrounding the disks recorded."}, "[1]": {"system": "Enterococcus faecium CP54-32", "test": "disk assay, zone of growth inhibition", "type": "cell-based", "method": "as §1\n(§3) Crude material from the initial synthesis reactions was used to test the potential of the analogues as antibiotics in susceptibility assays where a solution of the compound was placed on a paper disk on a lawn of bacteria. As described above, E. coli BAS901 is deficient in the Imp/OstA protein, an outer membrane protein, involved in cell envelope biogenesis (1, 5). […] The antibiotic activity of the peptides synthesized in this study was initially assayed using a disk assay where samples were applied to sterile paper disks placed on a fresh lawn of bacterial culture on Tryptic Soya, Luria Broth, or Brain Heart Infusion Agar plates. These were then incubated for 16 hrs at 37° C. and the zone of growth inhibition surrounding the disks recorded."}, "Micrococcus luteus": {"system": "Micrococcus luteus", "test": "disk assay, zone of growth inhibition", "type": "cell-based", "method": "as §1, §3"}, "Bacillus subtilis 1A752": {"system": "Bacillus subtilis 1A752", "test": "disk assay, zone of growth inhibition", "type": "cell-based", "method": "as §1, §3"}, "B. subtilis W23": {"system": "B. subtilis W23", "test": "disk assay, zone of growth inhibition", "type": "cell-based, Bacillus subtilis", "method": "as §1, §2"}, "B. subtilis L5706": {"system": "B. subtilis L5706", "test": "disk assay, zone of growth inhibition", "type": "cell-based, Bacillus subtilis", "method": "as §1, §2"}, "[2]": {"system": "S. saprophyticus (ATCC 15305)", "test": "disk assay, zone of growth inhibition", "type": "cell-based, Staphylococcus saprophyticus", "method": "as §1, §2"}, "E. coli BAS901/pUC19ermB": {"system": "E. coli BAS901/pUC19ermB", "test": "microbe, parasite or virus in culture", "type": "cell-based, Escherichia coli", "from_the_text": "In order to test the effects of 5 against E. coli BAS901 harboring ermB, the 23S rRNA methyltransferase, the plasmid pJIM2246 ΩermB [13] was purified from Staphylococcus aureus RN4220/pJIM2246 ΩermB. ErmB was subsequently amplified from pJIM2246 ΩermB via polymerase chain reaction using primers 5′-[…] AND 5′-[…] (engineered restriction enzyme sites are underlined). The amplified product was subcloned into pCR4Blunt-TOPO (Invitrogen) and transformed into E. coli XL10 GOLD, resulting in ermB being positioned in frame with the lacZ gene. This construct, designated pTOPOerm, was then used as template in the reamplification of ermB using a new forward primer containing a strong ribosomal binding consensus sequence (shown in italics); 5-[…]. […]\nThe antibiotic activity of the peptides synthesized in this study was initially assayed using a disk assay where samples were applied to sterile paper disks placed on a fresh lawn of bacterial culture on appropriate agar plates as required by the organism. These were then incubated for 16 hr at 37° C. and the zone of growth inhibition surrounding the disks recorded. For quantitative assessment of antibiotic activity in liquid culture, the minimal inhibitory concentration (MIC) of peptides was determined by serial dilution studies. […]"}, "Haemophilus influenza": {"system": "Haemophilus influenza", "test": "disk assay, zone of growth inhibition", "type": "cell-based, Haemophilus influenzae", "method": "as §1, §2"}, "E. coli ribosomes": {"system": "E. coli ribosomes", "settings": "fluorescence titration, purified intact E. coli ribosomes"}, "E. coli BAS901/pUC19": {"system": "E. coli BAS901/pUC19", "test": "disk assay, zone of growth inhibition", "type": "cell-based, Escherichia coli", "from_the_text": "A hyperpermeable E. coli strain, E. coli BAS901, harboring a plasmid constitutively expressing Vgb was created for in vivo studies. The plasmids pVGB, described previously in [14], and […] were digested with Xbal and BamHI, to yield an approximately 1 kb fragment containing a ribosomal binding site upstream of vgb, and linearized pUC19 backbone, respectively. The vgb fragment was then subcloned into the linearized pUC19 backbone downstream of pLac yielding pUC19-VGB. Both pUC19-VGB and pUC19 were transformed E. coli BAS901.\nas §1, §3"}, "[3]": {"system": "Staphylococcus epidermidis (ATCC 12228)", "type": "cell-based", "method": "as §1, §3"}, "[4]": {"system": "Streptococcus pneumoniae (ATCC 6305)", "type": "cell-based", "method": "as §1, §3"}, "[5]": {"system": "Enterococcus faecalis (ATCC 29212)", "type": "cell-based", "method": "as §1, §3"}, "B. subtilis 1A752 [6]": {"system": "B. subtilis 1A752", "test": "checker-board synergy test with dalfopristin", "type": "cell-based, Bacillus subtilis", "settings": "microtiter plates, checker-board technique", "from_the_text": "(§4) Quinupristin and dalfopristin act in a synergistic manner."}, "E. coli BAS901 [7]": {"system": "E. coli BAS901", "test": "bacteriostatic or bactericidal action", "type": "cell-based, Escherichia coli"}, "Bacillus subtilis": {"system": "Bacillus subtilis", "test": "growth inhibition, text summary of disk assay", "type": "cell-based", "settings": "strain not given", "method": "as §1, §3"}, "[8]": {"system": "Staphylococcus epidermidis", "test": "growth inhibition, text summary of disk assay", "type": "cell-based", "settings": "strain not given", "method": "as §1, §3"}, "Enterococcus faecalis": {"system": "Enterococcus faecalis", "test": "growth inhibition, text summary of disk assay", "type": "cell-based", "settings": "strain not given", "method": "as §1, §3"}, "Streptococcus pneumoniae": {"system": "Streptococcus pneumoniae", "test": "growth inhibition, text summary of disk assay", "type": "cell-based", "settings": "strain not given", "method": "as §1, §3"}, "E. coli BAS901 [9]": {"system": "E. coli BAS901", "test": "checker-board synergy test with dalfopristin", "type": "cell-based, Escherichia coli", "settings": "microtiter plates, checker-board technique", "from_the_text": "as §4"}, "B. subtilis 1A752 [10]": {"system": "B. subtilis 1A752", "test": "bacteriostatic or bactericidal action", "type": "cell-based, Bacillus subtilis"}, "Vgb": {"biological_target": "T1, Vgb (Staphylococcus aureus, UniProt P17978)", "T1 construct": "made in house", "T1 sequence (P17978 whole entry)": "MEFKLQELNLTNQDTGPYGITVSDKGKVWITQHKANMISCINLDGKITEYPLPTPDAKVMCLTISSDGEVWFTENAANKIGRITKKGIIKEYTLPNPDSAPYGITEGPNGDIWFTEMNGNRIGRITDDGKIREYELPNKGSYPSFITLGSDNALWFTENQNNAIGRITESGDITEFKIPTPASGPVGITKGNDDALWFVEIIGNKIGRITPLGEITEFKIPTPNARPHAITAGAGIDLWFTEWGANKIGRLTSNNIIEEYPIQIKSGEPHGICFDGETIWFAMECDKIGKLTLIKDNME", "test": "inhibition of the streptogramin inactivating enzyme Vgb", "type": "biochemical", "settings": "concentrations of up to 0.4 mM", "method": "On-resin chemical cyclization of 5 provided sufficient material for more extensive analysis of antibacterial activity and investigation of its ability to inhibit the streptogramin inactivating enzyme Vgb. This enzyme however was insensitive to 5 in concentrations of up to 0.4 mM. […] Regardless of the actual mechanism, the design of these streptogramin-tyrocidine chimeras of the present invention result in antibiotics that are not recognized by a streptogramin inactivation enzyme."}}, "note": "Where two headings read alike, the source gives them in different places. Numbered stars: 1 amine (or outer) side, 2 acyl side, 3 side chain; on linkers, the order of the positions; unused ones are H or OH. Bridge positions count the residues as written; N and C are the ends. Square brackets hold non-standard residues; d marks the D form. Peptide text beside a SMILES is read from it. * marks the point of attachment. X1 = O=C1C[C@@H](C(=O)[*:2])N([*:1])C[C@H]1CS[C@@H]1CN2CCC1CC2; NMePhe(4-NMe2) = CN[C@@H](Cc1ccc(N(C)C)cc1)C(=O)O; Picolinoyl(3-OH) = O=C(c1ncccc1O)*; Phg = N[C@H](C(=O)O)c1ccccc1; Orn = NCCC[C@H](N)C(=O)O; dAbu = CC[C@@H](N)C(=O)O; Dap = NC[C@H](N)C(=O)O", "data": [{"smiles": "CC[C@H]1NC(=O)[C@@H](NC(=O)c2ncccc2O)[C@@H](C)OC(=O)[C@H](c2ccccc2)NC(=O)[C@@H]2CC(=O)[C@H](CS[C@@H]3CN4CCC3CC4)CN2C(=O)[C@H](Cc2ccc(N(C)C)cc2)N(C)C(=O)[C@@H]2CCCN2C1=O", "note": "[Quinupristin, quinupristin, reference compound] ({Picolinoyl(3-OH)}-T[dAbu]P[NMePhe(4-NMe2)][X1][Phg]; ester 1-C)", "values": [{"measurement": "Zone of Inhibition", "setting": "Escherichia coli BAS901", "result": 2.2, "unit": "cm"}, {"measurement": "Zone of Inhibition", "setting": "[1]", "result": 1.8, "unit": "cm"}, {"measurement": "Zone of Inhibition", "setting": "Micrococcus luteus", "result": 2.7, "unit": "cm"}, {"measurement": "Zone of Inhibition", "setting": "Bacillus subtilis 1A752", "result": 1.8, "unit": "cm"}, {"measurement": "Zone of Inhibition", "setting": "B. subtilis W23", "result": 2.1, "unit": "cm"}, {"measurement": "Zone of Inhibition", "setting": "B. subtilis L5706", "result": 2.1, "unit": "cm"}, {"measurement": "Zone of Inhibition", "setting": "[2]", "result": 2.3, "unit": "cm"}, {"measurement": "MIC", "setting": "E. coli BAS901/pUC19ermB; Escherichia coli, BAS901/PUC19ERMB", "result": 16, "unit": "µg/mL"}, {"measurement": "Zone of Inhibition", "setting": "Haemophilus influenza", "result": "n.i."}, {"measurement": "ribosome binding (increase of Hpa fluorescence)", "setting": "E. coli ribosomes", "result": "did support ribosome binding"}, {"measurement": "Zone of Inhibition", "setting": "E. coli BAS901/pUC19", "result": 2.2, "unit": "cm"}, {"measurement": "Zone of Inhibition", "setting": "E. coli BAS901/pUC19; listed as quinupristin", "result": "exhibit a zone of inhibition"}, {"measurement": "Zone of Inhibition", "setting": "[3]; Staphylococcus epidermidis (ATCC 12228), disk assay", "result": 3.4, "unit": "cm"}, {"measurement": "Zone of Inhibition", "setting": "[4]; Streptococcus pneumoniae (ATCC 6305), disk assay", "result": 2.1, "unit": "cm"}, {"measurement": "Zone of Inhibition", "setting": "[5]; Enterococcus faecalis (ATCC 29212), disk assay", "result": 1.8, "unit": "cm"}]}, {"smiles": "CC(C)C[C@@H]1NC(=O)[C@H](CCCN)NC(=O)[C@H]([C@@H](C)O)NC(=O)[C@@H](NC(=O)c2ncccc2O)CNC(=O)[C@H](Cc2ccccc2)NC(=O)[C@@H]2CCCN2C(=O)[C@@H](Cc2ccccc2)NC1=O", "note": "[Compound 5] ({Picolinoyl(3-OH)}-[Dap]T[Orn]L[dF]PF; lactam 1-C)", "values": [{"measurement": "synergy with dalfopristin", "setting": "B. subtilis 1A752 [6]", "result": "additive, not synergistic"}, {"measurement": "bacteriostatic or bactericidal", "setting": "E. coli BAS901 [7]", "result": "bacteriostatic and not bactericidal"}, {"measurement": "growth inhibition activity", "setting": "Bacillus subtilis", "result": "active"}, {"measurement": "growth inhibition activity", "setting": "[8]", "result": "active"}, {"measurement": "growth inhibition activity", "setting": "Enterococcus faecalis", "result": "active"}, {"measurement": "growth inhibition activity", "setting": "Streptococcus pneumoniae", "result": "active"}, {"measurement": "MIC", "setting": "E. coli BAS901/pUC19ermB; E. coli BAS901/pUC19ermB (Erm methyltransferase)", "result": 32, "unit": "µg/mL"}, {"measurement": "Zone of Inhibition", "setting": "Haemophilus influenza", "result": "n.i."}, {"measurement": "ribosome binding (increase of Hpa fluorescence)", "setting": "E. coli ribosomes", "result": "did not appear to interact with the ribosome"}, {"measurement": "synergy with dalfopristin", "setting": "E. coli BAS901 [9]", "result": "additive, not synergistic"}, {"measurement": "bacteriostatic or bactericidal", "setting": "B. subtilis 1A752 [10]", "result": "bacteriostatic and not bactericidal"}, {"measurement": "Zone of Inhibition", "setting": "[3]; ATCC 12228, 16 h", "result": 0.85, "unit": "cm"}, {"measurement": "Zone of Inhibition", "setting": "[4]; ATCC 6305, 16 h", "result": 0.8, "unit": "cm"}, {"measurement": "Zone of Inhibition", "setting": "[5]; ATCC 29212, 16 h", "result": 0.75, "unit": "cm"}, {"measurement": "inhibition of Vgb", "setting": "Vgb", "result": "insensitive"}]}]}
